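These data come from cells grown in 96-well plates and exposed to compound for 48 hours at five concentrations. At the GI50, growth is halved. TGI marks complete inhibition of growth.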
Experiments:
Assay in all cases: growth of human tumour cells (NCI), 48 h
RPMI-8226 leukemia = tested on: RPMI-8226 leukemia
ACHN renal = tested on: ACHN renal
TK-10 renal = tested on: TK-10 renal
A549 NSCLC = tested on: A549 NSCLC
A498 renal = tested on: A498 renal
NCI/ADR-RES ovarian = tested on: NCI/ADR-RES ovarian
MDA-MB-231 breast = tested on: MDA-MB-231 breast
HOP-62 NSCLC = tested on: HOP-62 NSCLC
OVCAR-8 ovarian = tested on: OVCAR-8 ovarian
SK-MEL-28 melanoma = tested on: SK-MEL-28 melanoma
SK-MEL-5 melanoma = tested on: SK-MEL-5 melanoma
HT29 colon = tested on: HT29 colon
M14 melanoma = tested on: M14 melanoma
OVCAR-5 ovarian = tested on: OVCAR-5 ovarian
SF-295 CNS = tested on: SF-295 CNS
U251 CNS = tested on: U251 CNS
BT-549 breast = tested on: BT-549 breast
UACC-62 melanoma = tested on: UACC-62 melanoma
SF-539 CNS = tested on: SF-539 CNS
T-47D breast = tested on: T-47D breast
DU-145 prostate = tested on: DU-145 prostate
CCRF-CEM leukemia = tested on: CCRF-CEM leukemia
UACC-257 melanoma = tested on: UACC-257 melanoma
HCT-116 colon = tested on: HCT-116 colon
NCI-H522 lung = tested on: NCI-H522 lung
PC-3 prostate = tested on: PC-3 prostate
HS 578T breast = tested on: HS 578T breast
HOP-92 NSCLC = tested on: HOP-92 NSCLC
UO-31 renal = tested on: UO-31 renal
SK-OV-3 ovarian = tested on: SK-OV-3 ovarian
SK-MEL-2 melanoma = tested on: SK-MEL-2 melanoma
NCI-H23 lung = tested on: NCI-H23 lung

`Clc1ccc2c(NCCNc3nc(-c4ccccc4)cc(-c4ccccc4)n3)ccnc2c1` gave a GI50 (RPMI-8226 leukemia) of 2190 nM, a TGI (RPMI-8226 leukemia) of 5100 nM and a GI50 (ACHN renal) of 1700 nM. For the same compound, the TGI (ACHN renal) was 3100 nM, the GI50 (TK-10 renal) was 1860 nM and the TGI (TK-10 renal) was 3410 nM. It also gave a GI50 (A549 NSCLC) of 2000 nM, a TGI (A549 NSCLC) of 3780 nM and a GI50 (A498 renal) of 2150 nM. It also gave a TGI (A498 renal) of 5610 nM, a GI50 (NCI/ADR-RES ovarian) of 1770 nM and a TGI (NCI/ADR-RES ovarian) of 3600 nM. It also gave a GI50 (MDA-MB-231 breast) of 1850 nM, a TGI (MDA-MB-231 breast) of 3440 nM and a GI50 (HOP-62 NSCLC) of 1610 nM. It also gave a TGI (HOP-62 NSCLC) of 3050 nM, a GI50 (OVCAR-8 ovarian) of 2070 nM and a TGI (OVCAR-8 ovarian) of 4300 nM. For the same compound, the GI50 (SK-MEL-28 melanoma) was 1760 nM, the TGI (SK-MEL-28 melanoma) was 3230 nM and the GI50 (SK-MEL-5 melanoma) was 1790 nM. It also gave a TGI (SK-MEL-5 melanoma) of 3200 nM, a GI50 (HT29 colon) of 1660 nM and a TGI (HT29 colon) of 3310 nM. For the same compound, the GI50 (M14 melanoma) was 1710 nM, the TGI (M14 melanoma) was 3160 nM and the GI50 (OVCAR-5 ovarian) was 1680 nM. The TGI (OVCAR-5 ovarian) was 3170 nM, the GI50 (SF-295 CNS) was 1760 nM and the TGI (SF-295 CNS) was 3390 nM. It also gave a GI50 (U251 CNS) of 1960 nM, a TGI (U251 CNS) of 3590 nM and a GI50 (BT-549 breast) of 1570 nM. It also gave a TGI (BT-549 breast) of 3200 nM, a GI50 (UACC-62 melanoma) of 1850 nM and a TGI (UACC-62 melanoma) of 3370 nM. It also gave a GI50 (SF-539 CNS) of 1790 nM, a TGI (SF-539 CNS) of 3350 nM and a GI50 (T-47D breast) of 1500 nM. For the same compound, the TGI (T-47D breast) was 3470 nM, the GI50 (DU-145 prostate) was 1790 nM and the TGI (DU-145 prostate) was 3450 nM. The GI50 (CCRF-CEM leukemia) was 2320 nM, the TGI (CCRF-CEM leukemia) was 5830 nM and the GI50 (UACC-257 melanoma) was 2030 nM. The TGI (UACC-257 melanoma) was 3980 nM, the GI50 (HCT-116 colon) was 1760 nM and the TGI (HCT-116 colon) was 3430 nM. It also gave a GI50 (NCI-H522 lung) of 1870 nM, a TGI (NCI-H522 lung) of 3760 nM and a GI50 (PC-3 prostate) of 1880 nM. It also gave a TGI (PC-3 prostate) of 3440 nM, a GI50 (HS 578T breast) of 1990 nM and a TGI (HS 578T breast) of 4560 nM. The GI50 (HOP-92 NSCLC) was 1610 nM, the TGI (HOP-92 NSCLC) was 3140 nM and the GI50 (UO-31 renal) was 1540 nM. For the same compound, the TGI (UO-31 renal) was 3010 nM, the GI50 (SK-OV-3 ovarian) was 1750 nM and the TGI (SK-OV-3 ovarian) was 3330 nM. It also gave a GI50 (SK-MEL-2 melanoma) of 1840 nM, a TGI (SK-MEL-2 melanoma) of 3620 nM and a GI50 (NCI-H23 lung) of 1870 nM. It also gave a TGI (NCI-H23 lung) of 3800 nM.
